# Patent US20060281771A1, “SYNERGISTIC MODULATION OF FLT3 KINASE USING AMINOQUINOLINE AND AMINOQUINAZOLINE KINASE MODULATORS” (priority 2005, published 2006)
# Legend:
# [1] = target: T1, wild-type FLT3 phosphorylation in Baf3 FLT3 cells (Homo sapiens, UniProt P36888); assay: Cell-based FLT3 receptor ELISA; details: FLT ligand-induced FLT3 phosphorylation
# T1 construct: host or cells: Baf3 (murine B cell lymphoma line)
# T1 sequence (P36888 27-993): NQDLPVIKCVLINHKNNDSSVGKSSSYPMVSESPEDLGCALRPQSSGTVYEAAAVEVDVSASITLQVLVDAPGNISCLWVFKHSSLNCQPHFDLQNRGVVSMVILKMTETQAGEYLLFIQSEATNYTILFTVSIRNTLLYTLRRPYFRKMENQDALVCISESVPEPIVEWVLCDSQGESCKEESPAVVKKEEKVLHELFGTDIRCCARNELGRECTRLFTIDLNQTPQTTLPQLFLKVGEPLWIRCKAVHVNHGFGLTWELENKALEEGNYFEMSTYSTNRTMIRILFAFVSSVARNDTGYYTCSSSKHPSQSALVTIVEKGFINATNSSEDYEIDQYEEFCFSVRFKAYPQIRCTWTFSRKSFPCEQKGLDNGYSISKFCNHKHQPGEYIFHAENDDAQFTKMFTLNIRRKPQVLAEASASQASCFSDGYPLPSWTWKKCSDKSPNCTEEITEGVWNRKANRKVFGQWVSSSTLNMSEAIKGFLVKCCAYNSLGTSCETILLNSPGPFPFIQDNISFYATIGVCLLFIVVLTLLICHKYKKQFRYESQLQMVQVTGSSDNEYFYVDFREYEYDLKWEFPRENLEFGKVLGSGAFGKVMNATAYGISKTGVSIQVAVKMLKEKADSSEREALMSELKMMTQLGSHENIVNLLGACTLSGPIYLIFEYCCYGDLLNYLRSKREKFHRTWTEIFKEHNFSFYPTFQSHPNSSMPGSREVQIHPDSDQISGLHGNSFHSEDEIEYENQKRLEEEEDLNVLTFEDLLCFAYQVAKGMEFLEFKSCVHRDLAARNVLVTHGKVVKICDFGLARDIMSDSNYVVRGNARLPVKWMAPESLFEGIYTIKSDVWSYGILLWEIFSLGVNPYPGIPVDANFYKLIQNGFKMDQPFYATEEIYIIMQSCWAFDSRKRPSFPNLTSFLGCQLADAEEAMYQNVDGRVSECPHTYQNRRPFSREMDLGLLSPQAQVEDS
# Procedure: Specific cellular inhibition of FLT ligand-induced wild-type FLT3 phosphorylation was measured in the following manner: Baf3 FLT3 cells overexpressing the FLT3 receptor were obtained from Dr. Michael Heinrich (Oregon Health and Sciences University). The Baf3 FLT3 cell lines were created by stable transfection of parental Baf3 cells (a murine B cell lymphoma line dependent on the cytokine IL-3 for growth) with wild-type FLT3. Cells were selected for their ability to grow in the absence of IL-3 and in the presence of FLT3 ligand.
# Baf3 cells were maintained in RPMI 1640 with 10% FBS, penn/strep and 10 ng/ml FLT ligand at 37° C., 5% CO2. To measure direct inhibition of the wild-type FLT3 receptor activity and phosphorylation a sandwich ELISA method was developed similar to those developed for other RTKs (see Sadick, M D, Sliwkowski, M X, Nuijens, A, Bald, L, Chiang, N, Lofgren, J A, Wong W L T. Analysis of Heregulin-Induced ErbB2 Phosphorylation with a High-Throughput Kinase Receptor Activation Enzyme-Linked Immunsorbent Assay, Analytical Biochemistry. 1996; 235:207-214 and Baumann C A, Zeng L, Donatelli R R, Maroney A C. Development of a quantitative, high-throughput cell-based enzyme-linked immunosorbent assay for detection of colony-stimulating factor-1 receptor tyrosine kinase inhibitors. J Biochem Biophys Methods. 2004; 60:69-79.). 200 μL of Baf3FLT3 cells (1×10^6/mL) were plated in 96 well dishes in RPMI 1640 with 0.5% serum and 0.01 ng/mL IL-3 for 16 hours prior to 1 hour compound or DMSO vehicle incubation. Cells were treated with 100 ng/mL Flt ligand (R&D Systems Cat# 308-FK) for 10 min. at 37° C. Cells were pelleted, washed and lysed in 100 ul lysis buffer (50 mM Hepes, 150 mM NaCl, 10% Glycerol, 1% Triton-X-100, 10 mM NaF, 1 mM EDTA, 1.5 mM MgCl2, 10 mM NaPyrophosphate) supplemented with phosphatase (Sigma Cat# P2850) and protease inhibitors (Sigma Cat #P8340). Lysates were cleared by centrifugation at 1000×g for 5 minutes at 4° C. Cell lysates were transferred to white wall 96 well microtiter (Costar #9018) plates coated with 50 ng/well anti-FLT3 antibody (Santa Cruz Cat# sc-480) and blocked with SeaBlock reagent (Pierce Cat#37527). Lysates were incubated at 4° C. for 2 hours. Plates were washed 3× with 200 ul/well PBS/0.1% Triton-X-100. Plates were then incubated with 1:8000 dilution of HRP-conjugated anti-phosphotyrosine antibody (Clone 4G10, Upstate Biotechnology Cat#16-105) for 1 hour at room temperature. Plates were washed 3× with 200 ul/well PBS/0.1% Triton-X-100. Signal detection with Super Signal Pico reagent (Pierce Cat#37070) was done according to manufacturer's instruction with a Berthold microplate luminometer. All data points are an average of triplicate samples. […] Inhibition and IC50 data analysis was done with GraphPad Prism using a non-linear regression fit with a multiparamater, sigmoidal dose-response (variable slope) equation.
# [2] = target: T2, isolated kinase domain of the human FLT3 receptor (a.a. 571-993) (Homo sapiens, UniProt P36888); assay: FLT3 fluorescence polarization kinase assay; format: biochemical
# T2 construct: human FLT3 receptor (a.a. 571-993)
# T2 sequence (P36888 571-993): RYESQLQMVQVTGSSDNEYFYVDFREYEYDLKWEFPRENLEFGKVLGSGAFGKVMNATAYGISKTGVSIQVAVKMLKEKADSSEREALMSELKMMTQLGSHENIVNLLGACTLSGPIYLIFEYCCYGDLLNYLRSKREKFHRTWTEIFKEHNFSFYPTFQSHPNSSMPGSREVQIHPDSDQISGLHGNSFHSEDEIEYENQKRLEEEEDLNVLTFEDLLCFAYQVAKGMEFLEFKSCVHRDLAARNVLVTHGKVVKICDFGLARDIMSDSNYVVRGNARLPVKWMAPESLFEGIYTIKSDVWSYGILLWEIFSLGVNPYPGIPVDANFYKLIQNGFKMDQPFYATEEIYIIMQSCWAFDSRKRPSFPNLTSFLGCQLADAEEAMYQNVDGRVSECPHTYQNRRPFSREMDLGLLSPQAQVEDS
# Description: The FLT3 FP assay utilizes the fluorescein-labeled phosphopeptide and the anti-phosphotyrosine antibody included in the Panvera Phospho-Tyrosine Kinase Kit (Green) supplied by Invitrogen. When FLT3 phosphorylates polyGlu4Tyr, the fluorescein-labeled phosphopeptide is displaced from the anti-phosphotyrosine antibody by the phosphorylated poly Glu4Tyr, thus decreasing the FP value. […] The kinase reaction is stopped with the addition of EDTA. The fluorescein-labeled phosphopeptide and the anti-phosphotyrosine antibody are added and incubated for 30 minutes at room temperature.
# All data points are an average of triplicate samples. Inhibition and IC50 data analysis was done with GraphPad Prism using a non-linear regression fit with a multiparamater, sigmoidal dose-response (variable slope) equation.
SMILES,IC50 [1] [nM],IC50 [2] [nM]
"CCN(CC)CC#Cc1ccc2ncnc(N3CCC(OC(=O)Nc4ccc(C(C)C)cc4)C3)c2c1 (stereo not drawn) [Compound 17, (4-Isopropyl-phenyl)-3-carbamic acid 1-[6-(3-diethylamino-prop-1-ynyl)-quinazolin-4-yl]-pyrrolidin-3-yl ester]",163,63
"COc1cc2ncc(C#N)c(N3CCC(NC(=O)Nc4ccc(C(C)C)cc4)C3)c2cc1OC (stereo not drawn) [Compound 26, 1-[1-(3-Cyano-6,7-dimethoxy-quinolin-4-yl)-pyrrolidin-3-yl]-3-(4-isopropyl-phenyl)-urea]",331,433
"COc1cc2ncnc(N3CCC(OC(=O)Nc4ccc(OC5CCC5)nc4)C3)c2cc1OC (stereo not drawn) [Compound 12, (6-Cyclobutoxy-pyridin-3-yl)-carbamic acid 1-(6,7-dimethoxy-quinazolin-4-yl)-pyrrolidin-3-yl ester]",11,35
"COc1cc2ncnc(N3CCC(N(C)C(=O)Nc4ccc(OC(C)C)cc4)C3)c2cc1OC (stereo not drawn) [Compound 36, 1-[1-(6,7-Dimethoxy-quinazolin-4-yl)-pyrrolidin-3-yl]-3-(4-isopropoxy-phenyl)-1-methyl-urea]",1300,1680
"COc1cc2ncc(C#N)c(N3CCC(NC(=O)Nc4ccc(OC(C)C)cc4)C3)c2cc1OC (stereo not drawn) [Compound 29, 1-[1-(3-Cyano-6,7-dimethoxy-quinolin-4-yl)-pyrrolidin-3-yl]-3-(4-isopropoxy-phenyl)-urea]",3100,531
"COc1cc2ncnc(N3CCC(CC(=O)Nc4ccc(C(C)C)cc4)C3)c2cc1OC (stereo not drawn) [Compound 6, 2-[11-(6,7-Dimethoxy-quinazolin-4-yl)-pyrrolidin-3-yl]-N-(4-isopropyl-phenyl)-acetamide]",46,14
"COc1cc2ncc(C#N)c(N3CCC(OC(=O)Nc4ccc(C(C)C)cc4)C3)c2cc1OC (stereo not drawn) [Compound 37, (4-Isopropyl-phenyl)-carbamic acid 1-(3-cyano-6,7-dimethoxy-quinolin-4-yl)-pyrrolidin-3-yl ester]",1100,2140
"CC(C)c1ccc(NC(=O)OC2CCN(c3ncnc4ccc(I)cc34)C2)cc1 (stereo not drawn) [Compound 20, (4-Isopropyl-phenyl)-carbamic acid 1-(6-iodo-quinazolin-4-yl)-pyrrolidin-3-yl ester]",43,96
"COc1cc2ncnc(N3CCC(NC(=O)Cc4ccc(C(C)C)cc4)C3)c2cc1OC (stereo not drawn) [Compound 35, N-[1-(6,7-Dimethoxy-quinazolin-4-yl)-pyrrolidin-3-yl]-2-(4-isopropyl-phenyl)-acetamide]",> 3000,1300
"COc1cc2ncc(C#N)c(N3CCC(OC(=O)Nc4ccc(OC(C)C)cc4)C3)c2cc1OC (stereo not drawn) [Compound 32, (4-Isopropoxy-phenyl)-carbamic acid 1-(3-cyano-6,7-dimethoxy-quinolin-4-yl)-pyrrolidin-3-yl ester]",1200,868
"COc1cc2ncnc(N3CCC(CNC(=O)Nc4ccc(C(C)C)cc4)CC3)c2cc1OC [Compound 18, 1-[1-(6,7-Dimethoxy-quinazolin-4-yl)-piperidin-4-ylmethyl]-3-(4-isopropyl-phenyl)-urea]",49,66
"CC(C)c1ccc(NC(=O)OC2CCN(c3ncnc4ccc(C#CCO)cc34)C2)cc1 (stereo not drawn) [Compound 14, (4-Isopropyl-phenyl)-carbamic acid 1-[6-(3-hydroxy-prop-1-ynyl)-quinazolin-4-yl]-pyrrolidin-3-yl ester]",4,37
"COc1cc2ncnc(N3CCC(NC(=O)Cc4ccc(C(C)C)cc4)CC3)c2cc1OC [Compound 21, N-[1-(6,7-Dimethoxy-quinazolin-4-yl)-piperidin-4-yl]-2-(4-isopropyl-phenyl)-acetamide]",63,150
"COc1cc2ncnc(N3CCC(OC(=O)Nc4ccc(OC(C)C)cc4)C3)c2cc1OC (stereo not drawn) [Compound 15, (4-Isopropoxy-phenyl)-carbamic acid 1-(6,7-dimethoxy-quinazolin-4-yl)-pyrrolidin-3-yl ester]",320,42
"COc1cc2ncnc(N3CCCC(NC(=O)Nc4ccc(C(C)C)cc4)C3)c2cc1OC (stereo not drawn) [Compound 28, 1-[1-(6,7-Dimethoxy-quinazolin-4-yl)-piperidin-3-yl]-3-(4-isopropyl-phenyl)-urea]",1900,510
"COc1cc2ncnc(N3CCC(C(=O)Nc4ccc(C(C)C)cc4)CC3)c2cc1OC [Compound 13, 1-(6,7-Dimethoxy-quinazolin-4-yl)-piperidine-4-carboxylic acid (4-isopropyl-phenyl)-amide]",89,37
"COc1cc2ncnc(N3CCC(NC(=O)Nc4ccc(C(C)C)cc4)C3)c2cc1OC (stereo not drawn) [Compound 7, 1-[1-(6,7-Dimethoxy-quinazolin-4-yl)-pyrrolidin-3-yl]-3-(4-isopropyl-phenyl)-urea]",140,16
"COc1cc2ncnc(N3CCC(OC(=O)Nc4ccc(C(C)C)cc4)CC3)c2cc1OC [Compound 1, (4-Isopropyl-phenyl)-carbamic acid 1-(6,7-dimethoxy-quinazolin-4-yl)-piperidin-4-yl ester]",16,6
